Tests used:
[1] = target: T1, Deoxyhypusine hydroxylase (Homo sapiens, UniProt Q9BU89); assay: Inhibition of DOHH (unknown origin)
T1 sequence (Q9BU89 whole entry): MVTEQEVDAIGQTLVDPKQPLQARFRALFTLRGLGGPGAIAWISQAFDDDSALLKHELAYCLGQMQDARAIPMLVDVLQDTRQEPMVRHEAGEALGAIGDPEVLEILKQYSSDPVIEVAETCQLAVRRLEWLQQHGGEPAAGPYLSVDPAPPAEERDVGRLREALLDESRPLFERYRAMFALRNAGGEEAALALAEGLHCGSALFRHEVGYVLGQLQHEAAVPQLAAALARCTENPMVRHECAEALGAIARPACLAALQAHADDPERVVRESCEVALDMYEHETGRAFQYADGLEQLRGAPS

[2] = target: T2, Deoxyhypusine hydroxylase (Plasmodium falciparum (isolate 3D7)) (UniProt Q8I701); assay: Inhibition of Plasmodium falciparum DOHH expressed in Escherichia coli BL21 cells at 1 mM after 24 hrs by GC/MS analysis relative to control
T2 sequence (whole entry): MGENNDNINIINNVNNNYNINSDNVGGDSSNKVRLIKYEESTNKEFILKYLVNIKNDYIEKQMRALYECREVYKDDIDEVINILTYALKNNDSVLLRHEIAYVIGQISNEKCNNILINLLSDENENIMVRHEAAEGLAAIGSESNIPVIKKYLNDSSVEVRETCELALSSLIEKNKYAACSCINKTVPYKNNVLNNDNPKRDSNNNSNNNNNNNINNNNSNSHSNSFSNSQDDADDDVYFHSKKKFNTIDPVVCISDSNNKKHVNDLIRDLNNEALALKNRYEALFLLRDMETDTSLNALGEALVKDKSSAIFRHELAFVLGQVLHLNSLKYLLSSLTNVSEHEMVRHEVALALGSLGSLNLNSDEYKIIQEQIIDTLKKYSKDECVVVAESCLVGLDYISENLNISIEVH

Row | Structure (SMILES) | IC50 [1] | inhibition [2]
1 | N[C@@H](Cn1ccc(=O)c(O)c1)C(=O)O [L-MIMOSINE] | 5 to 200 µM | 
2 | COc1ccc(-c2nc3cc(Cc4ccc5[nH]c(-c6ccc(OC)cc6)nc5c4)ccc3[nH]2)cc1 |  | 38.8%
3 | CCOc1ccc(-c2nonc2NC(=O)c2cccc(C)c2)cc1OCC |  | 43.3%
4 | c1ccc(-c2ccccn2)nc1 [DIPYRIDYL] | 5 to 200 µM | 
5 | c1ccc(Cn2c(/N=N/c3c(Nc4ccccc4)ccc4ccccc34)nc3ccccc32)cc1 |  | 35.9%
6 | Cc1c(O)c(=O)ccn1C [DEFERIPRONE] | 5 to 200 µM | 
7 | Cc1cc(C2CCCCC2)n(O)c(=O)c1 [CICLOPIROX] | 5 to 200 µM | 
8 | CC(=O)N(O)CCCCCNC(=O)CCC(=O)N(O)CCCCCNC(=O)CCC(=O)N(O)CCCCCN [DEFEROXAMINE] | 5 to 200 µM | 

From ChEMBL document CHEMBL4400514, “Medicinal chemistry of metal chelating fragments in metalloenzyme active sites: A perspective” (Eur J Med Chem, 2019)
